Test results reported in article PMC4930906 (The Korean Journal of Physiology & Pharmacology : Official …, 2016).

What was measured:
[1] = target: T1, TRESK (Mus musculus, UniProt Q6VV64); test: whole-cell patch clamp, HEK293, voltage ramp, current at +[…] mV; assay type: cell-based
T1 sequence (Q6VV64 1-394): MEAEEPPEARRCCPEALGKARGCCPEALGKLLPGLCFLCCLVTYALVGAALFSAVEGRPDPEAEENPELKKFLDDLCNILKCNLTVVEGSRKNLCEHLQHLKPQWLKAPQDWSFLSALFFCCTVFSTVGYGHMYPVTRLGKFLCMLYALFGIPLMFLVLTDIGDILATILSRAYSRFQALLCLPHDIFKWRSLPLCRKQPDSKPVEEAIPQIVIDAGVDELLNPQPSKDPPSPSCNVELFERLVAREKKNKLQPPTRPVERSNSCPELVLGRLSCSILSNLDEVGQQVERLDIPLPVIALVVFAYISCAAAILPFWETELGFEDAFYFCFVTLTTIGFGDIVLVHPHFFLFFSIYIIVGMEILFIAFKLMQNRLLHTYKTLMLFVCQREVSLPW

[2] = target: T2, TREK-2 (Rattus norvegicus, UniProt Q9JIS4); test: as above; assay type: cell-based
T2 sequence (Q9JIS4 1-538): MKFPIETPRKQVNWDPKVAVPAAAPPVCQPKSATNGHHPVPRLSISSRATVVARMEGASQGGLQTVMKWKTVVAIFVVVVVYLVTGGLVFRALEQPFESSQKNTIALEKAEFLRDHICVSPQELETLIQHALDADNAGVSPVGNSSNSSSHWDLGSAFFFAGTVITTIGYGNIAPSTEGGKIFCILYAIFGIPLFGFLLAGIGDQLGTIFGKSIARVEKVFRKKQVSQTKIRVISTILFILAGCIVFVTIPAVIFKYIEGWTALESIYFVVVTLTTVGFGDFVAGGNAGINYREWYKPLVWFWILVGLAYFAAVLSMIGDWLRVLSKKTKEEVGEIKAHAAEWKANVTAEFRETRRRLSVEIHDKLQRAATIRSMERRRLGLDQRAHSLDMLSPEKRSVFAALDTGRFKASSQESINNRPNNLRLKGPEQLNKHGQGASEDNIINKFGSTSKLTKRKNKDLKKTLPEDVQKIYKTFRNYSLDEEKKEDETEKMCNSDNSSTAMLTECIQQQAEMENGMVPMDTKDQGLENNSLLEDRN

## CN(C)CCC[C@@]1(c2ccc(F)cc2)OCc2cc(C#N)ccc21 [escitalopram]
[1]
  IC50: 49 ± 7 µM
[2]
  IC50: 102 ± 9 µM

## CC(NC(C)(C)C)C(=O)c1cccc(Cl)c1 (stereo not shown) [bupropion]
[1]
  IC50: 160 ± 17 µM

## COc1ccc2cc(CCC(C)=O)ccc2c1 [nabumetone]
[1]
  IC50: 557 ± 35 µM

## CC(=O)Nc1ccc(O)cc1 [acetaminophen]
[1]
  IC50: 220 ± 26 µM

## CN(C)CCC=C1c2ccccc2CCc2ccccc21 [amitriptyline]
[1]
  IC50: 26 ± 5 µM
[2]
  IC50: 16 ± 4 µM

## CN(C)CCCC1(c2ccc(F)cc2)OCc2cc(C#N)ccc21 (stereo not shown) [citalopram]
[1]
  IC50: 168 ± 11 µM
[2]
  IC50: 110 ± 9 µM

## CC(C)Cc1ccc(C(C)C(=O)O)cc1 (stereo not shown) [ibuprofen]
[1]
  IC50: 889 ± 10 µM
